# Measured values: patent US8697840B2, “Peptide inhibition of lung epithelial apoptosis and pulmonary fibrosis” (Board of Regents, The University of Texas System, priority 2008, dated 2014)
# Assays:
# [1] = test system: bleomycin-induced lung epithelial cell (LEC) apoptosis; assay: TUNEL staining for apoptosis of lung sections of bleo-treated mice; assay type: in vivo, mouse; details: for Lung epithelial cell apoptosis: appearance of cells / Lung epithelial cell apoptosis: cell death: bleo-treated animals, peptide one day after bleo; for Lung epithelial cell apoptosis: appearance of cells: lung tissue day 21; for Lung epithelial cell apoptosis: cell death: lung tissue day 21, TUNEL
# Method: The mice were sacrificed 24, 48 and 72 h later. Lungs were excised, inflated and fixed in formalin, and […] sections were analyzed by TUNEL staining. […]
# [2] = test system: bleo-induced lung injury in the mouse; assay: Lung hydroxyproline (collagen deposition) after bleo-induced lung injury; assay type: in vivo; details: for bleomycin-induced collagen deposition (hPro content, % of control): 10 mM peptide i.p. osmotic pump 7 days after bleo
# Method: (§1) FIGS. 10A and 10B are graphs showing the effect of PP-1 on fibrosis following bleo-induced lung injury in the mouse. […] 24 h after bleo, 0.1 ml osmotic pump filled with 10 mM PP-1 (designated “Bleo+PP” in Figures) or CP1 control scrambled peptide (“Bleo+CP1”) were implanted intraperitoneally. Lungs were harvested after 21 days, homogenized and the homogenates were subjected to the analysis of hydroxyproline or desmosine levels.
# Anesthetized mice received intranasal bleomycin HCl solution containing 40 μg/50μl in sterile saline solution. After 24 h, 7 days or 14 days 10 mM PP-1 (“Bleo+PP-1”) or control peptide (Bleo+CP-1) were given ip using a 0.1 ml osmotic pump. Mice were sacrificed and lungs excised 21 days later. Lung homogenates were analyzed for hydroxyproline. Results are expressed a % of control hydroxyproline concentration.
# Anesthetized mice received intranasal bleomycin HCl solution containing 40 μg/50 μl in sterile saline solution. After day 7, 10 mM peptide PP-2 (“Bleo+PP-2”) or control peptide (“Bleo+CP-2) were given intraperitoneally using a 0.1 ml osmotic pump. Lungs were excised after 21 days, lungs were homogenized and the homogenates were analyzed for hydroxyproline. Results are expressed a % of control hydroxyproline concentration.
# The hPro content of the whole mouse lungs tissues were measured using the technique of Woessner J F, 1961, Arch. Biochem. Biophys. 93:440-7). Lung tissue from each animal was homogenized in 1.0 ml of extraction buffer. One ml 12N HCl was added, and the samples were hydrolyzed at 110° C. for 24 h. After cooling, 5 μl of the samples were mixed with 5 μl of citrate-acetate buffer (5% citric acid, 1.2% glacial acetic acid, 7.25% sodium acetate and 3.4% sodium hydroxide) and 100 μl of chloramine-T solution (1.4% chloramine-T, 10% N-propanol, and 80% citrate acetate buffer) in 96 well plates. The mixture was incubated for 20 min at room temperature. A total of 100 μl of Ehrlich's solution (2.5 g p-dimethylaminobenzaldehyde added to 9.3 ml of n-propanol and 3.9 ml of 70% perchloric acid) was added to each well and the plates incubated at 65° C. for 18 min. The absorbance of each sample was measured at 550 nm. Standard curves were generated for each experiment using a known concentration of reagent hPro. Results were expressed as % changes in hPro content (with total hPro content of saline-treated control mouse lungs considered 100%).
# (§2) Lungs were harvested after 21 days, homogenized and the homogenates were subjected to the analysis of hydroxyproline as above (FIG. 10A) or desmosine (FIG. 10B). The effect of PP-1 on fibrosis in bleo-induced mouse lung injury was evaluated. Mice were treated with saline or 50 μg Bleo intranasally were implanted one day later with, 0.1 ml osmotic pumps i.p. The pumps were filled with either 10 mM (2.92 mg/100 μl) PP-1 (“Bleo+PP-1”) or control scrambled peptide CP-1 (“Bleo+CP-1”).
# [3] = test system: bleo-induced collagen deposition in mouse lung; assay: Mason's Trichrome stain for collagen of lung sections of bleo-treated mice; assay type: in vivo; details: for Collagen content in lung section: bleo-treated animals, peptide one day after bleo, day 21, trichrome stain
# Method: FIG. 13 is a set of photomicrographs showing that PP-1 prevents bleo-induced collagen deposition in mouse lung. Mice were treated with bleo (50 μg/ml) by intranasal instillation followed by treatment with PP-1 (10 nM) or control peptide CP-1 on day 2. Lungs were excised on day 21, inflated and fixed in formalin, a sectioned into […] sections which were subjected to Mason's Trichrome stain (a three-color stain that stains cell nuclei red, collagen green or blue, and cytoplasm red). Blue staining indicates collagen deposition in bleo-treated lung sections.
# (§3) FIGS. 14A & 14B is a series of photomicrographs of lung epithelial tissue stained with Mason's trichrome stain for collagen (FIG. 10A) and by TUNEL staining for apoptosis (FIG. 10B). Bleo-treated animals were instilled with either PP-1, PP-2 or control peptide CP-1 one day after bleo treatment, The lungs were removed on day 21, subjected to the staining procedures and examined for collagen accumulation or apoptosis.
# Collagen deposition in mouse lung after bleo treatment was investigated. Mice were treated with bleo (50 μg/ml) by intranasal instillation followed by treatment with PP-1 (10 nM) (designated as PP in Figure) or control peptide CP-1 (designated CP in FIG. 13) on day 2. Lungs were excised on day 21, inflated and fixed in formalin, a sectioned into […] sections which were subjected to Mason's Trichrome stain (a three-color stain that stains cell nuclei red, collagen green or blue, and cytoplasm red).
# (§4) A comparison was made of normal and bleo-treated lung, and the effect of PP-1 and PP-2 on the bleo-treated lungs were examined. Animals were treated with bleo and peptides as above. Lung tissue was removed at day 21 and stained with Mason's trichrome stain for collagen and subjected to TUNEL staining for apoptosis.
# bleo-treated lung = assay: Histology of lung tissue of bleo-treated animals, pathological observations; assay type: in vivo, mouse; details: conclusion from Table 3, day 21
# Source text: as §3, §4
# [4] = test system: uPAR-dependent adhesion of cells to vitronectin; details: Wei Y et al., 1996, Science 273; cited from earlier work
# [5] = biological target: integrin-caveolin-uPAR complexes (Homo sapiens, UniProt Q03405); details: at a concentration that blocked adhesion; Wei Y et al., 1996; cited from earlier work
# cleaved PARP = assay: IHC of lung sections of bleo-treated mice: cleaved PARP; assay type: in vivo, mouse; details: peptide 4.5 μM i.p. days 1 and 2, bleomycin 40 μg/50 μl intranasal day 2; up to 72 h
# Method: On day 2 mice were treated with bleomycin (40 μg/50μl) by intranasal instillation. Mice were sacrificed 24, 48 and 72 h after later, lungs were excised, inflated and fixed in formalin, and […] sections were analyzed by immunohistochemistry (IHC) using an antibody specific for cleaved PARP.
# (§5) For immunohistochemical (IHC) analysis, lungs were inflated at constant pressure of 20 cm H2O, removed and fixed overnight in 2% paraformaldehyde in PBS. Tissue was dehydrated by passage through a standard alcohol series and was embedded in paraffin. 5 μm sections were deparaffinized with xylene followed by incubation with 100% and 95% alcohol. After 10 min of antigen retrieval, the slides were incubated with H2O2 for 30 min to quench endogenous peroxidase. Slides were incubated overnight with the respective antibodies in PBS containing 0.1% Tween 20 and further processed using Lab vision kit (Freemont Calif.).
# p53 = assay: IHC of lung tissue of bleo-treated mice: p53; assay type: in vivo, mouse; details: bleomycin-treated mice, 24-72 h
# Method: as §5
# (§6) An IHC study was conducted to analyze lung tissue for expression p53, uPA, uPAR, PAI-1 and cleaved caspase 3 (Table 2). […] These IHC observations were confirmed by Western blotting (see Example II and FIG. 5).
# PAI-1 = assay: IHC of lung tissue of bleo-treated mice: PAI-1; assay type: in vivo, mouse; details: bleomycin-treated mice, 24-72 h
# Method: as §5, §6
# [6] = test system: bleo-induced lung injury in the mouse; assay: Lung desmosine (elastin) after bleo-induced lung injury; assay type: in vivo; details: 50 μg Bleo intranasally; 10 mM peptide in 0.1 ml osmotic pump i.p. one day later; lungs after 21 days
# Method: as §1, §2
# [7] = bleomycin 40 μg/50 μl intranasal, lungs after 21 days
# Chain of integrin-caveolin-uPAR complexes (Q03405 23-305, one chain of several): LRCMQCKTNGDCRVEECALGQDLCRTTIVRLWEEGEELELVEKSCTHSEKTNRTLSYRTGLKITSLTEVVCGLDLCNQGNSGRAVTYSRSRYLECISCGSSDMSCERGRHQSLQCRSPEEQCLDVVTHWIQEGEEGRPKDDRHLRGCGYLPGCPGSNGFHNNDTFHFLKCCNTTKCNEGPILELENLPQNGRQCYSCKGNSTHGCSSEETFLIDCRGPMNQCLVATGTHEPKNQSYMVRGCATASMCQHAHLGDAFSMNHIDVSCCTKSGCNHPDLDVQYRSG
Sequence,Lung epithelial cell apoptosis: appearance of cells [1],Lung epithelial cell apoptosis: cell death [1],"bleomycin-induced collagen deposition (hPro content, % of control) [2, 7]",Collagen content in lung section [3],effect on bleo-induced lung injury / Bleo-damaged lung tissue (bleo-treated lung),uPAR-dependent adhesion of cells to vitronectin [4],disruption of integrin-caveolin-uPAR complexes [5],"development of bleo-induced lung fibrosis ([3]; conclusion from Table 3, day 21)","apoptosis (TUNEL positive cells) ([1]; peptide 4.5 μM i.p. on day 1 and 2, bleomycin 40 μg/50 μl intranasal on day 2, 24, 48 and 72 h)",cleavage (degradation) of PARP in lung (cleaved PARP),p53 expression in lung tissue (IHC) (p53),PAI-1 expression in lung tissue (IHC) (PAI-1),"lung hydroxyproline levels ([2]; 50 μg Bleo intranasally, 10 mM peptide in 0.1 ml osmotic pump i.p. one day later, lungs after 21 days)","bleomycin-induced collagen deposition (hydroxyproline, % of control) ([2]; bleomycin 40 μg/50 μl intranasal, 10 mM peptide i.p. osmotic pump after 24 h, 7 days or 14 days, lungs 21 days)",lung desmosine levels [6]
AESTYHHLSLGYMYTLN [CP-2],"Fibrotic cells,",90% cell,but not its control peptide CP-2 reversed bleomycin induced increases in collagen deposition,Increased,did not have any discernible effect on Bleo-damaged lung tissue,inhibited uPAR-dependent adhesion of cells to vitronectin,disrupted integrin-caveolin-uPAR complexes,–,–,–,–,–,–,–,–
"NYHYLESSMTALYTLGH [PP-2, initially disclosed as scrambled control for Peptide 25 of Wei Y et al]","No fibrosis,",11% cell,significantly suppressed collagen deposition,Minimal,protected LECs from bleo-induced lung injury,but not its control (which is PP-2 here) inhibited uPAR-dependent adhesion of cells to vitronectin,"but not its control, disrupted integrin-caveolin-uPAR complexes",prevented the development of bleo-induced lung fibrosis,–,–,–,–,–,–,–
"WGIDKAFFTTSTVTYKWFRY [CP-1, scrambled control peptide for PP-1 with the same amino acid composition]","Fibrotic cells,",90% cell,–,Increased,did not have any discernible effect on Bleo-damaged lung tissue,–,–,–,"but not with control peptide, reversed bleomycin-induced apoptosis",but not control peptide CP-1 reversed such PARP degradation,"but not control peptide CP-1, blocked bleomycin induced p53 expression",but not control peptide (CP-1) reduced this PAI-1 expression,did not have this effect,but not control peptide CP-1 reversed bleomycin-induced increases in collagen deposition,did not have this effect
